Data taken from patent US10828349B2, “Treatment of microbial infections” (NATIONAL UNIVERSITY OF IRELAND, GALWAY, priority 2011, dated 2020).

Key:
R480/2012 9029 = assay: antibiotic susceptibility of strain; format: cell-based, P. aeruginosa; parameters: key: ‘S’ denotes sensitive; ‘R’ denotes resistant or increased tolerance; details: R480/2012 9029, cystic fibrosis sputum isolate
Protocol: (§1) The susceptibility of a number of P. aeruginosa strains to the KI-Dose-150 composition was tested using the method described in Example 1. […] The relative susceptibilities are described in Table 4.

R468/2012 9027 = assay: antibiotic susceptibility of strain; format: cell-based, P. aeruginosa; parameters: key: ‘S’ denotes sensitive; ‘R’ denotes resistant or increased tolerance; details: R468/2012 9027, cystic fibrosis sputum isolate
Protocol: as §1

R550/2012 9026 = assay: antibiotic susceptibility of strain; format: cell-based, P. aeruginosa; parameters: key: ‘S’ denotes sensitive; ‘R’ denotes resistant or increased tolerance; details: R550/2012 9026, cystic fibrosis sputum isolate
Protocol: as §1

R479/2012 9028 = assay: antibiotic susceptibility of strain; format: cell-based, P. aeruginosa; parameters: key: ‘S’ denotes sensitive; ‘R’ denotes resistant or increased tolerance; details: R479/2012 9028, cystic fibrosis sputum isolate
Protocol: as §1

P. aeruginosa D12 = assay: antibiotic susceptibility of strain; format: cell-based; parameters: key: ‘S’ denotes sensitive; ‘R’ denotes resistant or increased tolerance
Protocol: as §1

E. coli [1] = details: constant H2O2 (glucose oxidase) and LP; substrate 40 mg/ml doubly diluted; Mueller Hinton broth
Protocol: (§2) Secondly, an assay where the concentration of substrates was maintained constant, and the H2O2 levels were varied was employed.
This was aliquoted (150 μl) to rows of a 96-well plate. […] The samples were doubly diluted as far as well 11, leaving well 12 as a control. The plate was incubated overnight at 37° C., and the optical density measured throughout.

bacterial cells [2] = assay: lower limits of components of the enzymatic system, LB broth; format: cell-based; details: for level of required substrate: glucose and glucose oxidase levels sufficient
Protocol: The lower limits of each of the components in an enzymatic system, required to produce inhibitory biocidal concentrations of the antimicrobial agents, were determined (for example Table 1 and Table 5). To establish these lower limits for each component, minimum inhibitory concentrations for each were calculated using doubling dilutions on a 96-well plate, in a manner similar to that described in Example 1, wherein the concentration of the component of choice is lowered until no effect on growth is noted. […] At levels below this, there was insufficient reactive oxygen species produced to result in effective bactericidal activity. The level of LP required for a reaction to produce the reactive oxygen species at the required concentrations was determined at 0.15 unit activity/ml (1 mM KI present). […] This embodiment of the invention suitable for the therapeutic treatment of mastitis also included beta-galactosidase to convert the lactose present in milk to glucose.

E. coli [3] = details: constant substrate and LP; glucose/glucose oxidase doubly diluted; Mueller Hinton broth
Protocol: as §2
This was aliquoted (150 μl) to a 96 well plate.

[4] = tested on: Staphycoccus epidermidis central venous catheter-related biofilm; details: cited from earlier work; for result relative to gentamycin and vancomycin: biofilm lock therapy model; for duration of treatment after which biofilm cells were still recoverable: 10 g/L antibiotic
bacterial cells [5] = assay: potency in broth growth medium containing catalase; format: cell-based; details: hydrogen peroxide 0.85 M only
Protocol: This embodiment is referred to as ‘KI-Dose-150’.
The potency of the doses was not reversed. A 1:1024 dilution of the doses was inhibitory in the absence of catalase, and a 1:512 dilution of the doses was inhibitory in the presence of catalase.
As a comparison, the test was performed using only hydrogen peroxide (0.85 M), both in the presence and absence of catalase.

E. coli ATCC 25922 = assay: hydrogen peroxide source growth inhibition assay with or without LP and KI; format: cell-based
Protocol: Aliquots (20 ml) of nutrient broth were inoculated with 10^8 cells of E. coli ATCC 25922, and 150 μl of the inoculated broth were added to wells in a 96 well growth plate. This was repeated with the inoculated broth being further supplemented with LP (37.5 μl of a 4 mg/ml solution) and KI (75 μl of a 40 mg/ml solution) to the medium.
Sources of hydrogen peroxide were added (150 μl) to well 1 and doubly diluted to well 11, but not to well 12, which acted as a control.

E. coli [6] = details: catalase treated
Protocol: The antimicrobial properties of these compositions were tested using a doubling dilution 96-well plate growth assay-based method. An aliquot of the composition was added to 150 μl growth medium (with 1-2% glucose present) containing 10^7-8 bacterial cells, and brought to a final volume of 300 μl. The composition concentration was doubly diluted by the removal of 150 μl of the mixture and transfer to the next well containing 150 μl of identical growth medium, lacking the ROS producing components. The optical density of the medium was measured for 24 hours at 595 nm. […] Controls included wells to which none of the composition was supplemented, or wherein, one of the components was removed from the composition.
A further example of a pre-activated system was employed as follows: solutions (4 ml volumes) containing 0.85 M H2O2 plus none or 2.5 M NaCl/5 μl chloroperoxidase (˜10,000 Units/ml) were allowed incubate. The solutions were then split and either catalase treated (50 μl of a 4 mg/ml, >1,000 units/mg) or were not catalase treated. The relative antimicrobial properties of the solutions were then tested using the protocol as described in Example 1 using E. coli supplemented broth.

E. coli [7] = assay: milk inoculated with E. coli, enzymatic system with Beta-galactosidase; format: cell-based; details: component of the four-component system in milk inoculated with E. coli
[8] = effect of milk pasteurisation heating on the enzymatic components; format: physicochemical; details: held 15-600 seconds; activity read by E. coli total viable counts in milk after 24 hrs at 37° C.
Protocol: An attempt was made to determine the effects of the milk pasteurisation process on the enzymatic components, which can be used to produce the reactive oxygen species of the composition of the present invention. Working concentrations of the enzymes were heated in 50 μl volumes to 72° C. and held for 15, 30, 60, 300 or 600 seconds.
Appropriate concentrations of these aliquots were then transferred to milk containing the necessary components of the system and ˜10^8 cells/ml E. coli. Total viable counts were performed after 24 hrs incubation at 37° C. This allowed the determination of whether the enzymes were still active after heating.

[9] = nutrient broth supplemented with KI and LP

With `NCC[C@H](O)C(=O)N[C@@H]1C[C@H](N)[C@@H](O[C@H]2O[C@H](CN)[C@@H](O)[C@H](O)[C@H]2O)[C@H](O)[C@H]1O[C@H]1O[C@H](CO)[C@@H](O)[C@H](N)[C@H]1O` [Amikacin] the “susceptibility of the strain to the antibiotic” value (“susceptibility of the strain” for short) (R480/2012 9029) was “R”, the “susceptibility of the strain” value (R468/2012 9027) was “R” and the “susceptibility of the strain” value (R550/2012 9026) was “R”. For the same molecule, the “susceptibility of the strain” value (R479/2012 9028) was “R”.
For `O=C(O)c1cn(C2CC2)c2cc(N3CCNCC3)c(F)cc2c1=O` [Ciprofloxacin], the “susceptibility of the strain” value (P. aeruginosa D12) was “R”, the “susceptibility of the strain” value (R480/2012 9029) was “R” and the “susceptibility of the strain” value (R550/2012 9026) was “R”.
For `[I-].[K+]` [Iodide, potassium iodide], the “last doubling dilution with substrate level sufficient for complete inhibition” value (E. coli [1]) was 8, the “level of required substrate” value (bacterial cells [2]) was “approximately 0.5 mM” and the “number of dilutions of the H2O2 producing sample with inhibition” value (E. coli [3]) was “six”.
For `N#C[S-].[K+]` [Thiocyanate, potassium thiocyanate], the “last doubling dilution with substrate level sufficient for complete inhibition” value (E. coli [1]) was 9, the “level of required substrate” value (bacterial cells [2]) was “approximately 0.5 mM” and the “number of dilutions of the H2O2 producing sample with inhibition” value (E. coli [3]) was “two”.
In the case of `NC[C@H]1O[C@H](O[C@H]2[C@H](O)[C@@H](O[C@H]3O[C@H](CO)[C@@H](O)[C@H](N)[C@H]3O)[C@H](N)C[C@@H]2N)[C@H](N)C[C@@H]1O` [Tobramycin], the “susceptibility of the strain” value (R550/2012 9026) is reported as “R” and the “susceptibility of the strain” value (R479/2012 9028) is reported as “R”.
In the case of `CC(=O)NC[C@H]1CN(c2ccc(N3CCN(C(=O)CO)CC3)c(F)c2)C(=O)O1` [eperezolid], the “result relative to gentamycin and vancomycin” value [4] is listed as “better results”.
For `OO` [hydrogen peroxide], the “effect of catalase on the inhibitory nature” value (bacterial cells [5]) was “completely reverse the inhibitory nature”, the “greatest dilution of the hydrogen peroxide source inhibitory to E. coli” value (E. coli ATCC 25922; [9]) was 1:32 dilution still not inhibitory and the “dilutions at which inhibition of the bacteria was noted” value (E. coli [6]) was “no inhibition”.
For `CC(=O)NC[C@H]1CN(c2ccc(N3CCOCC3)c(F)c2)C(=O)O1` [linezolid], the “result relative to gentamycin and vancomycin” value [4] is listed as “better results”.
For `O=C([O-])[O-].O=C([O-])[O-].OO.OO.OO.[Na+].[Na+].[Na+].[Na+]` [sodium percarbonate solution, sodium percarbonate], the “greatest dilution of the hydrogen peroxide source inhibitory to E. coli” value (E. coli ATCC 25922; [9]) was “no difference as regards inhibition” and the “greatest dilution of the hydrogen peroxide source inhibitory to E. coli” value (E. coli ATCC 25922; nutrient broth without supplemented KI and LP) was “identical to that observed following direct H2O2 addition”.
For `CN[C@H](CC(C)C)C(=O)N[C@H]1C(=O)N[C@@H](CC(N)=O)C(=O)N[C@H]2C(=O)N[C@H]3C(=O)N[C@H](C(=O)N[C@H](C(=O)O)c4cc(O)cc(O)c4-c4cc3ccc4O)[C@H](O)c3ccc(c(Cl)c3)Oc3cc2cc(c3O[C@@H]2O[C@H](CO)[C@@H](O)[C@H](O)[C@H]2O[C@H]2C[C@](C)(N)[C@H](O)[C@H](C)O2)Oc2ccc(cc2Cl)[C@H]1O` [vancomycin], the “duration of treatment after which biofilm cells were still recoverable” value [4] is listed as 7 days.
In the case of Gentamicin, the “duration of treatment after which biofilm cells were still recoverable” value [4] is given as 10 days, the “susceptibility of the strain” value (R480/2012 9029) is given as “R” and the “susceptibility of the strain” value (R550/2012 9026) is given as “R”. For the same molecule, the “susceptibility of the strain” value (R479/2012 9028) was “R”.
In the case of Glucose oxidase, the “concentration sufficient to observe antibacterial activity” value (E. coli [7]) is reported as no less than 3.75 mg/L, the “glucose oxidase level required” value (bacterial cells [2]; 0.5% glucose) is reported as 2 units/ml and the “glucose oxidase level required” value (bacterial cells [2]; 1% glucose) is reported as 1 units/ml. The “glucose oxidase level required” value (bacterial cells [2]; LB broth, 2% glucose, 120 mg/L KI, 320 units LP) was “at least 0.5 unit glucose oxidase/ml”.
With lactoperoxidase the “concentration sufficient to observe antibacterial activity” value (E. coli [7]) was no less than 12 mg/L, the “level of LP required” value (bacterial cells [2]; 1 mM KI present) was 0.15 unit activity/ml and the “enzyme activity after heating to 72° C.” value [8] was “demonstrated activity after 300 seconds heating”.
